# Measured values published in patent publication US20090093538A1, “Method for treating cancer” (priority 2007, published 2009).
# Assays:
# Assay type in all cases: cell-based, human
# MDA-MB-435 cells [1] = assay: Cell viability (Cell Counting Kit-8); details: Homo sapiens, MDA-MB-435; 500 nM, 72 hours post-drug treatment; read-out: reduction of cell viability
# Method: The cells were further cultured at 37° C. for 72 hours and cell viability was measured with Cell Counting Kit-8 (Dojindo Laboratories, Cat# CK04).
# Hsp70 = assay: Cell surface expression of Hsp70, MCF-7 cells (immunofluorescence); details: MCF-7, 0.5 μM, 3 hrs
# Method: After treatment, cells were rinsed one time in PBS then fixed in 2% Paraformaldehyde at room temperature for 20 minutes. Slides with the fixed cells were rinsed with PBS two times. Primary antibody mouse monoclonal anti-Hsp70 (Stressgen SPA-8 10) was diluted 1:100 in PBS and the slides were incubated 1 hour at 37° C. The slides were rinsed two times with PBS. Secondary antibody anti-mouse AlexaFluor 488 (Molecular Probes A-11001) was diluted 1:500 in PBS and the slides were incubated 30 min at 37° C. The slides were rinsed two times in PBS. DAPI (Molecular Probes D-3571) were diluted 1:10,000 in PBS and the slides were incubated at room temperature in dark for 5 min. The slides were rinsed two times in PBS, then once in deionized water and left to dry in dark until almost completely dry. Coverslips were mounted with Prolong Anti-fade Mounting Media (Molecular Probes P-748 1). The images were captured with a monochrome CCD camera SenSys (see FIGS. 27A-D and 28A-D) or by confocal microscopy (see FIG. 29A-E). In FIGS. 27A-D and 28A-D, the bright pink color on the surface of the MCF-7 cells (FIG. 27A-D) or CEM cells (FIG. 28A-D) indicates Hsp70 on the surface of the cells. In FIG. 29A-E the bright green color on the surface of the cell indicates Hsp70 on the surface of the HT29 cells.
# MDA-MB-435 cells [2] = assay: Lysis of target cells by mouse splenocytes (MTS assay); details: 0.1 or 0.5 μM, about 15 hours, splenocytes 10:1, 24 hours
# Method: MDA-MB-435 cells were purchased from American Type culture collection. Human mammary epithelial (HMEC), human renal epithelial (HRE) cells and medium for maintaining the cells were obtained from Cambrex Bioproducts. Mouse splenocytes were isolated form CD1 nude mice (Jackson Lab). […] Mouse splenocytes were isolated from Nude mice and mixed with MDA-MB-435, HMEC and HRE cells at ratio of 10:1. The mixed cells were incubated at 37° C. for 24 hours in the tissue culture medium and MTS assay was performed to measure viability of the cells with an ELISA reader (DYNEX Technologies). Cytotoxicity (C) was calculated based on an equation below: C=[1-([…])]×100%
# [3] = test system: Hs294T (or MDA-MB-435) cells; assay: Affymetrix transcriptional profiling; details: 100 nM, 6 hours
# Method: RNA was isolated from the cells 6 hours after treatment using the RNeasy kit according to the manufacturers instructions (Qiagen Cat. # 71404) and RNA quality was confirmed by spectrophotometric examination. cDNA was synthesized using the One-Cycle cDNA Synthesis Kit (Affymetrix Cat. # 900431) according to the manufacturers instructions. cDNA was labeled using the GeneChip IVT Labeling Kit (Affymetrix Cat. #900449) and analyzed in duplicate on the Affymetrix Human Genome U133Plus 2.0 gene chip array according to standard Affymetrix protocols. Data sheets from the Affymetrix Gene Chip Scanner 3000 were imported into Microsoft Excel and filtered by the following criteria: greater than or equal to 1.5 fold increase, greater than or equal to 0.4SE between replicates; and 50 (low stringency) or 500 (high stringency) for the lowest signal.
# NAC is the rate-limiting amino acid for the production of the antioxidant glutathione. Addition of NAC to cells increases the levels of endogenous glutathione which in turn blocks oxidative stress and ROS generation. […] RNA was isolated from the cells 6 hours after treatment and Affymetrix analysis was performed as above.
structure (smiles),measurement,setting,value
CN(NC(=O)CC(=O)NN(C)C(=S)c1ccccc1)C(=S)c1ccccc1 [Compound 1],cytotoxicity at 0.5 µM,MDA-MB-435 cells [1],~90%
same,Hsp70 on the surface of cells,Hsp70,bright pink fluorescent color on the surface of the cells indicating Hsp70
same,Hsp70 on the surface of cells,Hsp70; then 2 hrs recovery without Compound 1,stronger than immediately following treatment with Compound 1
same,increase in lysis compared to cells treated with DMSO alone,MDA-MB-435 cells [2],about 15%
same,increase in transcription of Hsp70,[3],over 300 fold
same,induction of heat shock and metallothionein genes,[3]; Hs294T melanoma cells,robustly induced heat shock and metallothionein genes
same,"gene expression profile (heat shock proteins, metallothioneins, antioxidants)",[3]; MDA-MB-435 cells,induces an oxidative stress signature profile
